Measured values taken from PubChem BioAssay AID2060484 (Molecular Pharmacology Branch, DTP, NCI, 2025).
pIC50: −log10 of the molar value.

Tested on: SUM149PT spheroids with HUVEC/MSC, viability
Experiment: Anticancer human tumor SUM149PT cell line growth inhibition [GQUAD];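 also: spheroids exposed to drugs for seven days before readout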;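 as to viability, T/C: percent viability relative to DMSO vehicle control taken as 100%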
Settings: for pIC50: curve of first compound; for viability, T/C: stronger effect = lower value
Procedure, shortened: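 Viability of tumor cells grown as complex spheroids with endothelial and stromal cells, exposed to drug combinations. Top concentration at or near clinical Cmax (else 10 microM), diluted in half-log increments.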

[1] = second compound 0.0316 µM, first compound 0.0316 µM
[2] = second compound 0.0316 µM, first compound 0.1 µM
[3] = second compound 0.0316 µM, first compound 0.316 µM
[4] = second compound 0.0316 µM, first compound 1 µM
[5] = second compound 0.0316 µM, first compound 3.16 µM
[6] = second compound 0.0316 µM, first compound 10 µM
[7] = second compound 0.1 µM, first compound 0.0316 µM
[8] = second compound 0.1 µM, first compound 0.1 µM
[9] = second compound 0.1 µM, first compound 0.316 µM
[10] = second compound 0.1 µM, first compound 1 µM
[11] = second compound 0.1 µM, first compound 3.16 µM
[12] = second compound 0.1 µM, first compound 10 µM
[13] = second compound 0.316 µM, first compound 0.0316 µM
[14] = second compound 0.316 µM, first compound 0.1 µM
[15] = second compound 0.316 µM, first compound 0.316 µM
[16] = second compound 0.316 µM, first compound 1 µM
[17] = second compound 0.316 µM, first compound 3.16 µM
[18] = second compound 0.316 µM, first compound 10 µM
[19] = second compound 1 µM, first compound 0.0316 µM
[20] = second compound 1 µM, first compound 0.1 µM
[21] = second compound 1 µM, first compound 0.316 µM
[22] = second compound 1 µM, first compound 1 µM
[23] = second compound 1 µM, first compound 3.16 µM
[24] = second compound 1 µM, first compound 10 µM
[25] = second compound 3.16 µM, first compound 0.0316 µM
[26] = second compound 3.16 µM, first compound 0.1 µM
[27] = second compound 3.16 µM, first compound 0.316 µM
[28] = second compound 3.16 µM, first compound 1 µM
[29] = second compound 3.16 µM, first compound 3.16 µM
[30] = second compound 3.16 µM, first compound 10 µM
[31] = second compound 10 µM, first compound 0.0316 µM
[32] = second compound 10 µM, first compound 0.1 µM
[33] = second compound 10 µM, first compound 0.316 µM
[34] = second compound 10 µM, first compound 1 µM
[35] = second compound 10 µM, first compound 3.16 µM
[36] = second compound 10 µM, first compound 10 µM

CC(C)(O)C1CCC(Nc2ccc3ncc(-c4cccc(C(F)(F)F)c4)n3n2)CC1 (stereo unspecified) + Cc1cnc(CNC(=O)c2c(=O)c3ccc(N4CCCN(C)CC4)nc3n3c2sc2ccccc23)cn1
pIC50 (second compound 0.0316 µM): 5.96 | pIC50 (second compound 0.1 µM): 6.16 | pIC50 (second compound 0.316 µM): 6.46 | pIC50 (second compound 1 µM): > 7.50 | pIC50 (second compound 3.16 µM): > 7.50 | pIC50 (second compound 10 µM): > 7.50 | viability, T/C [1]: 72.8% | viability, T/C [2]: 69.2% | viability, T/C [3]: 58.2% | viability, T/C [4]: 57% | viability, T/C [5]: 32.6% | viability, T/C [6]: 29.5% | viability, T/C [7]: 57.3% | viability, T/C [8]: 63% | viability, T/C [9]: 67% | viability, T/C [10]: 43.9% | viability, T/C [11]: 26.2% | viability, T/C [12]: 24.3% | viability, T/C [13]: 52.9% | viability, T/C [14]: 50.8% | viability, T/C [15]: 47.9% | viability, T/C [16]: 44.6% | viability, T/C [17]: 22.5% | viability, T/C [18]: 25.8% | viability, T/C [19]: 43.7% | viability, T/C [20]: 43.6% | viability, T/C [21]: 37.9% | viability, T/C [22]: 37.3% | viability, T/C [23]: 18.9% | viability, T/C [24]: 17.4% | viability, T/C [25]: 32.9% | viability, T/C [26]: 34.7% | viability, T/C [27]: 32.5% | viability, T/C [28]: 32.1% | viability, T/C [29]: 18.5% | viability, T/C [30]: 1.21% | viability, T/C [31]: 0.27% | viability, T/C [32]: 2.83% | viability, T/C [33]: 2.02% | viability, T/C [34]: 1.99% | viability, T/C [35]: 2.14% | viability, T/C [36]: 1.18%

O=c1[nH]cc(F)c(=O)[nH]1 + CN(C)c1ccc(Nc2c3ccc(NC(=O)CCN4CCCC4)cc3nc3cc(NC(=O)CCN4CCCC4)ccc23)cc1
pIC50 (second compound 0.0316 µM): 5.05 | pIC50 (second compound 0.1 µM): < 5.00 | pIC50 (second compound 0.316 µM): 5.08 | pIC50 (second compound 1 µM): 5.06 | pIC50 (second compound 3.16 µM): 5.18 | pIC50 (second compound 10 µM): 5.34 | viability, T/C [1]: 105% | viability, T/C [2]: 93.2% | viability, T/C [3]: 99.2% | viability, T/C [4]: 98.8% | viability, T/C [5]: 63.5% | viability, T/C [6]: 48.6% | viability, T/C [7]: 100% | viability, T/C [8]: 92% | viability, T/C [9]: 94.4% | viability, T/C [10]: 99.3% | viability, T/C [11]: 61.5% | viability, T/C [12]: 57.3% | viability, T/C [13]: 86.5% | viability, T/C [14]: 93.3% | viability, T/C [15]: 86.5% | viability, T/C [16]: 89.5% | viability, T/C [17]: 70% | viability, T/C [18]: 46.2% | viability, T/C [19]: 83.5% | viability, T/C [20]: 91.6% | viability, T/C [21]: 94.8% | viability, T/C [22]: 99.4% | viability, T/C [23]: 68.8% | viability, T/C [24]: 47.2% | viability, T/C [25]: 81.5% | viability, T/C [26]: 80% | viability, T/C [27]: 82.8% | viability, T/C [28]: 92.5% | viability, T/C [29]: 60% | viability, T/C [30]: 44.5% | viability, T/C [31]: 80.6% | viability, T/C [32]: 80.9% | viability, T/C [33]: 91.2% | viability, T/C [34]: 94% | viability, T/C [35]: 52.5% | viability, T/C [36]: 44.3%

C=CCn1c(=O)c2cnc(Nc3ccc(N4CCN(C)CC4)cc3)nc2n1-c1cccc(C(C)(C)O)n1 + CN(C)c1ccc(Nc2c3ccc(NC(=O)CCN4CCCC4)cc3nc3cc(NC(=O)CCN4CCCC4)ccc23)cc1
pIC50 (second compound 0.0316 µM): 6.71 | pIC50 (second compound 0.1 µM): 6.76 | pIC50 (second compound 0.316 µM): 6.81 | pIC50 (second compound 1 µM): 6.99 | pIC50 (second compound 3.16 µM): 6.92 | pIC50 (second compound 10 µM): 6.89 | viability, T/C [1]: 93.8% | viability, T/C [2]: 72.7% | viability, T/C [3]: 32.3% | viability, T/C [4]: 19.8% | viability, T/C [5]: 11.4% | viability, T/C [6]: 7.42% | viability, T/C [7]: 92.8% | viability, T/C [8]: 69.2% | viability, T/C [9]: 28.1% | viability, T/C [10]: 20.1% | viability, T/C [11]: 9.53% | viability, T/C [12]: 9.35% | viability, T/C [13]: 95.8% | viability, T/C [14]: 62.1% | viability, T/C [15]: 30% | viability, T/C [16]: 16.4% | viability, T/C [17]: 8.18% | viability, T/C [18]: 6.73% | viability, T/C [19]: 78% | viability, T/C [20]: 50.4% | viability, T/C [21]: 28.5% | viability, T/C [22]: 16.4% | viability, T/C [23]: 9.65% | viability, T/C [24]: 7.97% | viability, T/C [25]: 87.7% | viability, T/C [26]: 54.1% | viability, T/C [27]: 29.4% | viability, T/C [28]: 17.9% | viability, T/C [29]: 7.8% | viability, T/C [30]: 7.28% | viability, T/C [31]: 89.1% | viability, T/C [32]: 56.6% | viability, T/C [33]: 28% | viability, T/C [34]: 17.1% | viability, T/C [35]: 9.36% | viability, T/C [36]: 8.81%
